Measurements published in ChEMBL document CHEMBL5726104, “4,6-disubstituted aminopyrimidine derivatives have anti-HIV activity” (2017).

Target: Cyclin-dependent kinase 9 (Homo sapiens, UniProt P50750)
Experiment: Fluorescent Polarization Assay: The activity of the compounds described in the present invention can be determined by measuring the phosphorylation of a fluorescently-labeled peptide by human CDK9/CyclinT kinase complex by fluorescent polarization using a commercially available IMAP Screening Express Assay Kit (Molecular devices).Test compounds were diluted in 100% DMSO to 5 mM stock concentration, then further dilutions were made in H2O or 100% DMSO to desirable concentrations. Each reaction consisted of 5 nM enzyme: CDK9/CyclinT (Proqinase cat#0371-0345-1), 400 nM TAMRA-Rbtide (synthetic 15-mer peptide derived from human retinoblastoma tumor suppressor protein labeled with TAMRA dye, Genecust Europe), 12 μM ATP (=Kmapp, Sigma-Aldrich) and kinase buffer: 20 mM MOPS pH 7 (Sigma-Aldrich), 1 mM DTT (Sigma-Aldrich), 10 mM MgCl2 (Sigma-Aldrich), 0.01% Tween 20 (Sigma-Aldrich).For each reaction, 4 or 6 μl containing TAMRA-Rbtide, ATP and kianse buffer were combined with 2 μl diluted compound in H2O or 0.028 μl compound in 100% DMSO. The kinase reaction was started by the addition of 2 μl diluted enzyme.

Cyclin-dependent kinase 9, sequence (P50750 whole entry): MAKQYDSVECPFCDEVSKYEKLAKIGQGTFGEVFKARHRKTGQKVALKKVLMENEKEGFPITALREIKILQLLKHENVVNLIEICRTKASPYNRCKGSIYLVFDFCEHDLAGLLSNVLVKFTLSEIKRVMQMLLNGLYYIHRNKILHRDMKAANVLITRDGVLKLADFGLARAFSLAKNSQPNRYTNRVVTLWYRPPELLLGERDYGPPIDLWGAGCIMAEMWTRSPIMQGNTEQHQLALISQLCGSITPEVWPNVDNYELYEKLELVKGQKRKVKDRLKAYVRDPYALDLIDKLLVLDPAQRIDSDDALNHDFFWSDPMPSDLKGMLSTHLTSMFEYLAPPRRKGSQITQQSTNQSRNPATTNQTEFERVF

IC50 [µM]	SMILES
< 0.1	COc1ccc(Nc2cc(-c3ccccc3OC)ncn2)cc1NS(C)(=O)=O
< 10	COc1ccc(Nc2cc(-c3ccccc3OCc3ccccc3)ncn2)cc1[N+](=O)[O-]
> 10	COc1cccc(-c2cc(Nc3ccc(OC)c([N+](=O)[O-])c3)ncn2)c1

SMILES	IC50 [µM]
COc1ccccc1-c1cc(Nc2ccc(N3CCN(C)CC3)c(CO)c2)ncn1	< 0.1
